Molecular target: T1, yeast recombinant FLAG-GPBP (Homo sapiens, UniProt Q9Y5P4)
T1 construct: FLAG; made in house
T1 sequence (Q9Y5P4 1-624): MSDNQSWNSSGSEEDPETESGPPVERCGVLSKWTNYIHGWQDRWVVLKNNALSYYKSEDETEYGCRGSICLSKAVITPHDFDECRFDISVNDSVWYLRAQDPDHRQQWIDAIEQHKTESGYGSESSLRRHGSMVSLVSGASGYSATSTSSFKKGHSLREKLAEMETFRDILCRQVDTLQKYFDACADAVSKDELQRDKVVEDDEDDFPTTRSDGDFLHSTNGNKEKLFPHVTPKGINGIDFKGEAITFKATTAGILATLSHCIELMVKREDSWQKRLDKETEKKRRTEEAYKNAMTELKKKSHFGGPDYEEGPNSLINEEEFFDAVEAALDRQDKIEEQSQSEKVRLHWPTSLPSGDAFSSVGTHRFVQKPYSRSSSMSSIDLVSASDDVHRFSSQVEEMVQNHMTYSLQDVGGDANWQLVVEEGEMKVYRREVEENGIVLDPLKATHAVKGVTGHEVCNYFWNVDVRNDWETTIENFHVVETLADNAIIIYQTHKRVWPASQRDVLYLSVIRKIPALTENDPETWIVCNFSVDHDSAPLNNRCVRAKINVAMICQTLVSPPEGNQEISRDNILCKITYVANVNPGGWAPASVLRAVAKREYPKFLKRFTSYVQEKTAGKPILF
Assay: FLAG-GPBP auto-phosphorylation assay
Assay type: biochemical
Conditions: 10 μM compound, 5 min at 30° C., autoradiography bands quantified, vehicle = 100; read-out: Relative kinase activity (% referred to vehicle)
From the text: Goodpasture antigen-binding protein (GPBP) is a non-conventional Ser/Thr kinase which targets and phosphorylates the non-collagenous (NC1) domain of α3 chain of human type IV collagen [α3(IV)NC1], known as Goodpasture antigen. GPBP expression has been associated with antibody-mediated glomerulonephritis, rheumatoid arthritis and drug-resistance cancer. We have reported that GPBP self-interacts, that aggregation and autophosphorylation regulate kinase activity, and that the Q2 peptide inhibits autophosphorylation and GPBP kinase activity (WO 00/50607). The GPBP kinase inhibitory activity of a number of terphenylic compounds mimicking Q2, a peptide representing a critical GPBP motif which is relevant for GPBP quaternary structure stabilization, have been tested on GPBP autophosphorylation ability The autophosphorylation ability of GPBP has been used to test the GPBP kinase inhibitor activity of several terphenylic compounds (Scheme 18) derived from the chemical structure of Q2 peptide, which in turn represents GPBP peptidic sequence relevant for self-interaction.
Two hundred nanograms of yeast recombinant FLAG-GPBP were subjected to phosphorylation assays in absence (vehicle) or presence of a 10 μM concentration of each of the indicated Q2-peptidomimetic compounds or an intermediate of synthesis used as negative control (C), during 5 min at 30° C. Reactions were subjected to SDS-PAGE, Western blot and autoradiography. The bands in the autoradiography were quantified using Image-Quant TL software. The kinase activity of GPBP in the presence of the indicated compounds was referred to the sample containing the vehicle, which was given a value of 100.
Yeast recombinant FLAG-GPBP production and purification were also performed. GPBP autophosphorylation assay times were limited to 10 min at 30° C.

Going from Cc1cccc(-c2ccc(-c3ccc(O)cc3CCC(=O)O)cc2CO)c1 [Compound 1a, 3-[4″-hydroxy-2′-(hydroxymethyl)-3-methyl-(1,1′;4′,1″)terphenyl-2″-yl]propionic acid] to Cc1cccc(-c2ccc(-c3ccc(O)cc3CCC(=O)O)cc2CF)c1 [Compound 15a, 3-[2′-(fluoromethyl)-4″-hydroxy-3-methyl-(1,1′;4′,1″)terphenyl-2″-yl]propionic acid], the activity at 10 µM rises from 34% to 79%.

First: O=C(O)CCc1cc(O)ccc1-c1ccc(-c2cccc(C(F)(F)F)c2)c(CO)c1 [Compound 1b, 3-[4″-hydroxy-2′-(hydroxymethyl)-3-(trifluoromethyl)-(1,1′;4′,1″)terphenyl-2″-yl]propionic acid]
Second: O=C(O)CCc1cc(O)ccc1-c1ccc(-c2cccc(C(F)(F)F)c2)c(CF)c1 [Compound 15b, 3-[2′-(fluoromethyl)-4″-hydroxy-3-(trifluoromethyl)-(1,1′;4′,1″)terphenyl-2″-yl]propionic acid]
The activity at 10 µM of the first is higher: 131% for the first, 21% for the second.

Compared with O=C(O)CCc1cc(O)ccc1-c1ccc(-c2cccnc2)c(CO)c1 [Compound 1c, 3-[4-hydroxy-3′-(hydroxymethyl)-4′-(pyridin-3-yl)biphenyl-2-yl]propionic acid], COc1ccc(-c2ccc(-c3cccnc3)c(CO)c2)c(CCC(=O)O)c1 [Compound 22i, 3-[3′-(hydroxymethyl)-4-methoxy-4′-(pyridin-3-yl)biphenyl-2-yl]propionic acid] is higher in activity at 10 µM: 58% for the first, 132% for the second.

Compared with Cc1cccc(-c2ccc(-c3ccc(O)cc3C(C)C)cc2CCC(=O)O)c1 [Compound 2a, 3-[4″-hydroxy-2″-isopropyl-3-methyl-(1,1′;4′,1″)terphenyl-2′-yl]propionic acid], Cc1cccc(-c2ccc(-c3ccc(O)cc3CCC(=O)O)cc2C)c1 [Compound 12a, 3-[4″-hydroxy-2′,3-dimethyl-(1,1′;4′,1″)terphenyl-2″-yl]propionic acid] is lower in activity at 10 µM: 90% for the first, 53% for the second.

First: Cc1cc(-c2ccc(O)cc2CCC(=O)O)ccc1-c1cccc(C(F)(F)F)c1 [Compound 12b, 3-[4″-hydroxy-2′-methyl-3-(trifluoromethyl)-(1,1′;4′,1″)terphenyl-2″-yl]propionic acid]
Second: COc1ccc(-c2ccc(-c3cccc(C(F)(F)F)c3)c(C)c2)c(CCC(=O)O)c1 [Compound 22f, 3-[2′-methyl-4″-methoxy-3-(trifluoromethyl)-(1,1′;4′,1″)terphenyl-2″-yl]propionic acid]
The activity at 10 µM of the first is higher: 49% for the first, 41% for the second.

Compared with Cc1cccc(-c2ccc(-c3ccc(O)cc3CCC(=O)O)cc2C(F)F)c1 [Compound 20a, 3-[2′-(difluoromethyl)-4″-hydroxy-3-methyl-(1,1′;4′,1″)terphenyl-2″-yl]propionic acid], COc1ccc(-c2ccc(-c3cccc(C)c3)c(C(F)F)c2)c(CCC(=O)O)c1 [Compound 22d, 3-[2′-(difluoromethyl)-4″-methoxy-3-methyl-(1,1′;4′,1″)terphenyl-2″-yl]propionic acid] is higher in activity at 10 µM: 61% for the first, 79% for the second.

Compared with O=C(O)CCc1cc(O)ccc1-c1ccc(-c2cccc(C(F)(F)F)c2)c(C(F)F)c1 [Compound 20b, 3-[2′-(difluoromethyl)-4″-hydroxy-3-(trifluoromethyl)-(1,1′;4′,1″)terphenyl-2″-yl]propionic acid], COc1ccc(-c2ccc(-c3cccc(C(F)(F)F)c3)c(C(F)F)c2)c(CCC(=O)O)c1 [Compound 22h, 3-[2′-(difluoromethyl)-4″-methoxy-3-(trifluoromethyl)-(1,1′;4′,1″)terphenyl-2″-yl]propionic acid] is lower in activity at 10 µM: 77% for the first, 49% for the second.

First: COc1ccc(-c2ccc(-c3cccc(C)c3)c(CO)c2)c(CCC(=O)O)c1 [Compound 22a, 3-[2′-(hydroxymethyl)-4″-methoxy-3-methyl-(1,1′;4′,1″)terphenyl-2″-yl]propionic acid]
Second: COc1ccc(-c2ccc(-c3cccc(C)c3)c(CF)c2)c(CCC(=O)O)c1 [Compound 22c, 3-[2′-(fluoromethyl)-4″-methoxy-3-methyl-(1,1′;4′,1″)terphenyl-2″-yl]propionic acid]
The activity at 10 µM of the first is lower: 118% for the first, 123% for the second.

Compared with COc1ccc(-c2ccc(-c3cccc(C)c3)c(C)c2)c(CCC(=O)O)c1 [Compound 22b, 3-[4″-methoxy-3,2′-dimethyl-(1,1′;4′,1″)terphenyl-2″-yl]propionic acid], CCCOc1ccc(-c2ccc(-c3cccc(C)c3)c(C)c2)c(CCC(=O)O)c1 [Compound 24a, 3-[3,2′-dimethyl-4″-propoxy-(1,1′;4′,1″)terphenyl-2″-yl]propionic acid] is higher in activity at 10 µM: 44% for the first, 73% for the second.

Going from COc1ccc(-c2ccc(-c3cccc(C(F)(F)F)c3)c(CO)c2)c(CCC(=O)O)c1 [Compound 22e, 3-[2′-(hydroxymethyl)-4″-methoxy-3-(trifluoromethyl)-(1,1′;4′,1″)terphenyl-2″-yl]propionic acid] to COc1ccc(-c2ccc(-c3cccc(C(F)(F)F)c3)c(CF)c2)c(CCC(=O)O)c1 [Compound 22g, 3-[2′-(fluoromethyl)-4″-methoxy-3-(trifluoromethyl)-(1,1′;4′,1″)terphenyl-2″-yl]propionic acid], the activity at 10 µM falls from 129% to 103%.

First: COc1ccc(-c2ccc(-c3cccnc3)c(C)c2)c(CCC(=O)O)c1 [Compound 22j, 3-[4-methoxy-3′-methyl-4′-(pyridin-3-yl)biphenyl-2-yl]propionic acid]
Second: COc1ccc(-c2ccc(-c3cccnc3)c(CF)c2)c(CCC(=O)O)c1 [Compound 22k, 3-[3′-(fluoromethyl)-4-methoxy-4′-(pyridin-3-yl)biphenyl-2-yl]propionic acid]
The activity at 10 µM of the first is lower: 50% for the first, 135% for the second.

Compared with COc1ccc(-c2ccc(-c3cccnc3)c(C(F)F)c2)c(CCC(=O)O)c1 [Compound 22l, 3-[3′-(difluoromethyl)-4-methoxy-4′-(pyridin-3-yl)biphenyl-2-yl]propionic acid], COc1ccc(-c2ccc(-c3ccc(OC)c(C)c3)c(C)c2)c(CCC(=O)O)c1 [Compound 32, 3-[4,4″-dimethoxy-3,2′-dimethyl-(1,1′;4′,1″)terphenyl-2″-yl]propionic acid] is lower in activity at 10 µM: 136% for the first, 28% for the second.

Going from Cc1cccc(-c2ccc(-c3ccc(OCC(=O)O)cc3CCC(=O)O)cc2C)c1 [Compound 24b, 3-[4″-(carboxymethoxy)-3,2′-dimethyl-(1,1′;4,1″)terphenyl-2″-yl]propionic acid] to CCCOc1ccc(-c2ccc(-c3cccc(C(F)(F)F)c3)c(C)c2)c(CCC(=O)O)c1 [Compound 24c, 3-[2′-methyl-4″-propoxy-3-(trifluoromethyl)-(1,1′;4′,1″)terphenyl-2″-yl]propionic acid], the activity at 10 µM falls from 64% to 36%.

Molecular target: T2, GPBP (Homo sapiens, UniProt Q9Y5P4)
T2 sequence (Q9Y5P4 1-624): T1 sequence (Q9Y5P4 1-624)
Assay: not given
Conditions: see U.S. Pat. No. 7,326,768; cited from earlier work

In the case of “LATLSHCIELMVKR [Compound Q2, synthetic peptide representing the five-residue SHCIE motif of GPBP and flanking regions]”, the “α3(IV)NC1 conformer production by GPBP” value is listed as “reduce α3(IV)NC1 conformer production”.

Molecular target: T2, GPBP
Assay: not given
Conditions: see U.S. Pat. No. 7,326,768; cited from earlier work
Remark: another data set of the same source

For “LATLSHCIELMVKR [Compound Q2, synthetic peptide representing the five-residue SHCIE motif of GPBP and flanking regions]”, the “inhibition of GPBP autophosphorylation” value is listed as “efficiently inhibited GPBP autophosphorylation”.
